Experimental data taken from patent publication US20210128735A1, “BIOCOMPATIBLE COPOLYMER CONTAINING MULTIPLE ACTIVE AGENT MOLECULES” (priority 2018, published 2021).
Where two headings read alike, the source gives them in different places.

System: HepG2 cells
Test: Exploratory toxicity: eight cell health parameters (CHP) by automated fluorescent cellular imaging (ArrayScan)
Format: cell-based
Conditions: for MTD (row Cell count): concentration at which <20% cell loss was observed; for AC50: Homo sapiens
Description: The polymeric carriers of this disclosure are not biodegradable. […] An exploratory toxicity study of a polymeric carrier of the present disclosure (without payload) was performed. Briefly, HepG2 cells were plated on 96-well black walled, clear bottomed polystyrene plates at 100 μL per well. Test compound was a H2N-G3-Cellophil copolymer (12 kDa) containing DMA and AK (90/10 mol %) that was prepared by the procedure described in example 13, step 7. The HepG2 cells were dosed with test compound at concentrations from 0.04 to 100 μM. At the end of 72-h incubation at 37° C., appropriate dies or antibodies were added to the cultures. The plates were then scanned using an automated fluorescent cellular imager (ArrayScan®, Thermo Scientific Cellomics).
The following eight cell health parameters (CHP) were evaluated:
Cell count: A decreasing number of cells per well indicates toxicity due to necrosis, apoptosis or a reduction in cellular proliferation. Nuclear size: An increase in nuclear area can indicate necrosis or G2 cell cycle arrest, and a decrease can indicate apoptosis. DNA structure: An increase in DNA structure can indicate chromosomal instability and DNA fragmentation. Mitochondrial mass: A decrease in mitochondrial mass indicates loss of total mitochondria and an increase implies mitochondrial swelling or an adaptive response to cellular energy demands. Mitochondrial membrane potential (Δψm): A decrease indicates a loss of mitochondrial integrity, typically resulting in apoptotic signaling; an increase in mitochondrial membrane potential indicates an adaptive response to cellular energy demands. Oxidative stress: An increase in reactive oxygen species (ROS) is an early cytotoxic response. Glutathione content: A decrease in glutathione (GSH) content can result from production of ROS or from direct binding to tested compound. An increase in GSH content represents an adaptive cellular response to oxidative stress. Cellular ATP: After cell lysis, ATP is released from the cell. Cells which are not metabolically active will not release any ATP. Therefore, a decrease in metabolically active cells will result in a decrease in the level of ATP detected.

[1] = HepG2, 72-h incubation, NR = no response

Row | SMILES | MEC, Cellular ATP [µM] | MEC, Glutathione content [µM] | MTD (row Cell count) [1] [µM] | MEC, Cell count (HepG2, 72-h incubation at 37° C., 0.04 to 100 μM, MEC = lowest dose at which an effect is detected, NR = no response) [µM] | MEC, Cellular ATP [1] [µM] | MEC, Nuclear size [1] [µM] | MEC, Oxidative stress [1] [µM] | MEC, DNA structure (HepG2, 72-h incubation, NR = no response, NS = not statistical significant) [µM] | AC50 (HepG2, 72-h incubation, NR = no response, NS = not statistical significant, read-out: AC50, DNA structure) [µM] | AC50 (HepG2, 72-h incubation, NR = no response, read-out: AC50, Cellular ATP) [µM] | AC50 (HepG2, 72-h incubation, NR = no response, read-out: AC50, Glutathione content) [µM] | AC50 (HepG2, 72-h incubation, NR = no response, read-out: AC50, Mitochondrial mass) [µM] | AC50 (HepG2, 72-h incubation, NR = no response, read-out: AC50, Mitochondrial membrane potential) [µM] | AC50 (HepG2, 72-h incubation, NR = no response, read-out: AC50, Nuclear size) [µM] | AC50 (HepG2, 72-h incubation, NR = no response, read-out: AC50, Oxidative stress) [µM] | AC50 (HepG2, 72-h incubation, concentration at which 50% of the maximum effect is observed, NR = no response, read-out: AC50, Cell count) [µM]
1 | CCCCS(=N)(=O)CCC(N)C(=O)O [control 2, L-buthionine-sulfoximine] | 14.4 | 1.7 | 40 |  |  |  |  |  |  |  |  |  |  |  |  | 
2 | N#CC(C#N)=NNc1cccc(Cl)c1 [control 1, carbonyl cyanide 3-chlorophenylhydrazone] |  |  | 2 | 1.73 | 3.13 | 3.76 | 0.539 | 0.63 | 46.7 | 4.15 | > 100 | > 100 | > 100 | 8.09 | 22.4 | 2.54
